Test results reported in patent US20040191297A1, “Carotenoid formulation” (priority 1997, published 2004).
“And” between values parts separate entries of the source, which are not always exact repeats. Identical values can stand only once.

Columns and labels:
[1] = Lycopene content of rat mammary gland; format: in vivo, Fischer 344 rats; conditions: female
Text: (§1) homogenized. […] This hexane extraction procedure was repeated 5-7 times.

[2] = Ten-week MTD feeding study: weight gain and toxicity; format: in vivo
Experimental: Inbred Fischer F344 males (n=70) and females (n=70) were obtained from Taconic Farms, Germantown, N.Y. At about 35 days of age, all animals were transferred to the experimental room from quarantine. The animals were then allocated into experimental groups using formal randomization methods to ensure that each group contained animals of the same mean weight.
A ten-week pilot study was conducted as described in Table 2 & FIG. 2 to determine the maximal tolerated dose (MTD) for lycopene in both male (colon model) and female (breast model) rats. The choice of dose ranges was based on published values for β-carotene. A mixed carotenoid composition containing 5.7% carotenoids, including 3.7% pure lycopene was suspended in medium chain triglycerides (this composition will be referred to below as the “Lycopene Suspension”). The Lycopene Suspension was incorporated into the AIN-76A diet.
Differences in the lipid content of the various treatment groups were controlled by supplementing their diets with appropriate amounts of Neobee® medium chain triglyceride (Stepan Co., Maywood, N.J.) such that all animals, including controls, received the same amount of dietary fat.
Animal weights were recorded once per week and animal appearance (coat texture) and food avoidance behavior assessed. By concentration,
the maximal tolerated dose is that dose which […] mean body weight loss.

[3] = Concentration of lycopene in rat lung; format: in vivo, Fischer 344 rats
Experimental: Extraction of lycopene from diet was as follows: A sample of diet containing lycopene was suspended in the injection solvent (Table 4) and homogenized in a polytron homogenizer. Echinenone was added as an internal standard and the mixture centrifuged at 3000 rpm at 4° C. for 15 minutes. The supernatant was decanted and saved and the extraction repeated. The pooled extracts were then dried under N2 gas at 60° C. and the residue dissolved in 0.5 ml injection solvent and then subjected to HPLC analysis. The same method, with minor variations, was used for feces and for lung tissue. The efficiency of lycopene extraction from the diet is shown in Table 6 A&B. At any concentration tested the efficiency ranged from 75% at the highest concentration to 100% for the lowest concentration of lycopene.
as §1

retinol = experiment: Liver vitamin A assay; format: in vivo, Fischer 344 rats; conditions: male
[4] = Dietary lycopene stability, AIN-76A diet at 4 °C in the dark; format: physicochemical; conditions: for % (diet concentration 744 μg/g as 100%) / Lycopene concentration: 4 °C dark; for Lycopene concentration: AIN-76A diet
Experimental: The stability of the lycopene suspension once incorporated into the diet was assessed in two ways. The first was by placing the diet containing the suspension at 4° C. in the dark for a period of 3 weeks (Table 8A,B).
At various time points, a diet sample was taken and lycopene was extracted as follows: Approximately 0.5 to 1.0 g of sample was added to a 15 ml volume of extraction solvent consisting of 40% acetonitrile, 20% hexane, 20% methanol and 20% methylenechloride. The mixture was sonicated for 2 minutes and allowed to stand for 5 minutes. The reddish-orange clear supernatant was then decanted. This process was repeated 4 times, at which time the supernatant was colorless. Solvent was then added to a volume of 25 to 100 ml, the mixture centrifuged, and the supernatant decanted. All supernatants were then mixed. The above solvent serves two purposes; first, it is the most efficient mixture for lycopene, and second, it is the same solvent used for injecting lycopene samples into the HPLC.

[5] = female rat, Group 1, 1280 in diet
[6] = female rat, Group 2, 512 in diet
[7] = female rat, Group 3, 256 in diet
[8] = female rat, Group 4, 128 in diet
[9] = female rat, Group 5, 51 in diet
[10] = male rat, Group 1, 1280 in diet

CC(C)=CCC/C(C)=C/C=C/C(C)=C/C=C/C(C)=C/C=C/C=C(C)/C=C/C=C(C)/C=C/C=C(\C)CCC=C(C)C [Lycopene]
Lycopene content of mammary gland, Median ([1]; Group 1 (1280 mg/kg diet)): 235 ng/g | Lycopene content of mammary gland, Range ([1]; Group 1 (1280 mg/kg diet)): 232 to 460 ng/g | Lycopene content of mammary gland, mean ± SD ([1]; Group 1 (1280 mg/kg diet)): 309 ± 131 ng/g | Lycopene content of mammary gland, Median ([1]; Group 2 (512 mg/kg diet)): 197 ng/g | Lycopene content of mammary gland, Range ([1]; Group 2 (512 mg/kg diet)): 172 to 231 ng/g | Lycopene content of mammary gland, mean ± SD ([1]; Group 2 (512 mg/kg diet)): 200 ± 030 ng/g | Lycopene content of mammary gland, Median ([1]; Group 3 (256 mg/kg diet)): 220 ng/g | Lycopene content of mammary gland, Range ([1]; Group 3 (256 mg/kg diet)): 139 to 282 ng/g | Lycopene content of mammary gland, mean ± SD ([1]; Group 3 (256 mg/kg diet)): 215 ± 062 ng/g | Lycopene content of mammary gland, Median ([1]; Group 4 (128 mg/kg diet)): 217 ng/g | Lycopene content of mammary gland, Range ([1]; Group 4 (128 mg/kg diet)): 181 to 288 ng/g | Lycopene content of mammary gland, mean ± SD ([1]; Group 4 (128 mg/kg diet)): 229 ± 054 ng/g | Lycopene content of mammary gland, Median ([1]; Group 5 (51 mg/kg diet)): 143 ng/g | Lycopene content of mammary gland, Range ([1]; Group 5 (51 mg/kg diet)): 139 to 239 ng/g | Lycopene content of mammary gland, mean ± SD ([1]; Group 5 (51 mg/kg diet)): 174 ± 057 ng/g | toxicity ([2]; F-344 rat, dose range used): no evidence of lycopene toxicity | difference in weight gains between doses ([2]; analysis of variance for repeated measures): no difference | weight gain difference, control vs supplemented rats ([2]; end of 10 weeks): ≤ 10% | effect on food intake or weight gain ([2]; male and female rats, dosage range used): no deleterious effect | Concentration of lycopene in lung, average [3, 5]: 227 ngs/gm | Concentration of lycopene in lung, individual [3, 5]: 184 ngs/gm and 270 ngs/gm | Concentration of lycopene in lung, average [3, 6]: 246 ngs/gm | Concentration of lycopene in lung, individual [3, 6]: 211 ngs/gm and 280 ngs/gm | Concentration of lycopene in lung, average [3, 7]: 193 ngs/gm | Concentration of lycopene in lung, individual [3, 7]: 243 ngs/gm and 142 ngs/gm | Concentration of lycopene in lung, average [3, 8]: 211 ngs/gm | Concentration of lycopene in lung, individual [3, 8]: 208 ngs/gm and 214 ngs/gm | Concentration of lycopene in lung, average [3, 9]: 134 ngs/gm | Concentration of lycopene in lung, individual [3, 9]: 144 ngs/gm and 124 ngs/gm | Concentration of lycopene in lung, average [3, 10]: 190 ngs/g | Concentration of lycopene in lung, individual [3, 10]: 193 ngs/g and 187 ngs/g | Concentration of lycopene in lung, average ([3]; male rat, Group 2, 512 in diet): 214 ngs/g | Concentration of lycopene in lung, individual ([3]; male rat, Group 2, 512 in diet): 170 ngs/g and 257 ngs/g | Concentration of lycopene in lung, average ([3]; male rat, Group 3, 256 in diet): 375 ngs/g | Concentration of lycopene in lung, individual ([3]; male rat, Group 3, 256 in diet): 325 ngs/g and 424 ngs/g | Concentration of lycopene in lung, average ([3]; male rat, Group 4, 128 in diet): 201 ngs/g | Concentration of lycopene in lung, individual ([3]; male rat, Group 4, 128 in diet): 239 ngs/g and 162 ngs/g | Concentration of lycopene in lung, average ([3]; male rat, Group 5, 51 in diet): 151 ngs/g | Concentration of lycopene in lung, individual ([3]; male rat, Group 5, 51 in diet): 167 ngs/g and 135 ngs/g | Liver retinol (retinol; Group 7, lycopene 1280 mg/kg diet): 388 μg/gm | Liver retinol (retinol; Group 8, lycopene 512 mg/kg diet): 119 μg/gm | Liver retinol (retinol; Group 9, lycopene 256 mg/kg diet): 584 μg/gm | Liver retinol (retinol; Group 11, lycopene 51 mg/kg diet): 454 μg/gm | % (diet concentration 744 μg/g as 100%) ([4]; 1 day): 101% | % (diet concentration 744 μg/g as 100%) ([4]; 8 days): 98% | % (diet concentration 744 μg/g as 100%) ([4]; 14 days): 90% | % (diet concentration 744 μg/g as 100%) ([4]; 21 days): 72% | amount remaining relative to day 1 ([4]; 4 °C in the dark, 3 weeks): about 72% | decomposition ([4]; 4 °C in the dark, two weeks): about 10% | stability in the diet ([4]; 21 days in the dark at 4 °C): stable | Lycopene concentration ([4]; 1 day in refrigerator): 748 µg/g | Lycopene concentration ([4]; 8 days in refrigerator): 728 µg/g | Lycopene concentration ([4]; 14 days in refrigerator): 672 µg/g | Lycopene concentration ([4]; 21 days in refrigerator): 534 µg/g
